# EP2140864A2 (H. Lundbeck A/S, priority 2001, dated 2002)
# pKi: −log10 of the molar value.
# Molecular target: T1, human GAL3 receptor (Homo sapiens, UniProt O60755)
# T1 construct: expressed in transfected cells
# T1 sequence (O60755 1-368): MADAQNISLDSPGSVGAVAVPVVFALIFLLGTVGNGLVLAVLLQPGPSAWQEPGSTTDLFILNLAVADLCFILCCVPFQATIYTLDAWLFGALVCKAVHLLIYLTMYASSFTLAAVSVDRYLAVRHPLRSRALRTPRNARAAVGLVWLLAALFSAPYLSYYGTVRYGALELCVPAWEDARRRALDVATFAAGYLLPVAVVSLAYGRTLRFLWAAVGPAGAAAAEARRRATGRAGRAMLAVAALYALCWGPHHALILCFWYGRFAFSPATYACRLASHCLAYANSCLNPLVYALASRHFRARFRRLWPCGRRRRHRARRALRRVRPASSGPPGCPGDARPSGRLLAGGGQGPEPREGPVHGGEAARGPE
# Assay: Radioligand binding at cloned human GAL3 receptor
# Details: pyrimidines, cloned human receptor; read-out: Ki GalR3
# Description: The present invention provides for a method of determining the binding affinity of a GAL3 antagonist, wherein the GAL3 antagonist is dissolved in a "suitable solvent". A "suitable solvent" means one which permits the measurement of binding affinity of the GAL3 antagonist to the human GAL3 receptor at concentrations less than 1 µM, preferably less than 100 nM. Examples of solvents include, but are not limited to, DMSO, ethanol, N,N-dimethylacetamide, or water. For indolones, the preferred solvent is 3% DMSO (final concentration in the assay). For pyrimidines, the preferred solvent is 1% ethanol/0.09% polypuronic acid F-127 (final concentration in the assay). For any other type of compounds, the preferred solvent is the solvent which permits the measurement of binding affinity of a GAL3 antagonist at the lowest concentration. Once a suitable solvent is ascertained for the binding assay of the human GAL3 receptor, the same solvent is used in assays to determine the binding affinity at the GAL1 receptor, the serotonin transporter, the norepinephrine transporter, and the dopamine transporter. A solvent of 0.4% DMSO is used in the central monoamine oxidase enzyme assay.
# The binding properties of the pyrimidines of the present invention were evaluated at the cloned human galanin receptors, GAL1, GAL2, and GAL3, using protocols described herein.
# The binding properties of the indolones of the present invention were evaluated at the cloned human galanin receptors, GAL1, GAL2, and GAL3, using protocols described herein.
# LM(tk-) cells were stably transfected with the human GAL1 or GAL3 receptor. CHO cells were stably transfected with the human GAL2 receptor.
# cDNAs for the human and rat GAL1, and human and rat GAL3 receptors were transfected with a G-418 resistant gene into the mouse fibroblast LM(tk-) cell line by a calcium phosphate transfection method (Cullen, 1987). Stably transfected cells were selected with G-418. Human and rat GAL2 receptors were similarly transfected into CHO cells.
# Membranes were harvested from stably transfected LM(tk-) cells. Adherent cells were washed twice in ice-cold phosphate buffered saline (138 mM NaCl, 8.1 mM Na2HPO4, 2.5 mM KCl, 1.2 mM KH2PO4, 0.9 mM CaCl2, 0.5 mM MgCl2, pH 7.4) and lysed by sonication in ice-cold sonication buffer (20 mM Tris-HCl, 5 mM EDTA, pH 7.7). Large particles and debris were cleared by low speed centrifugation (200 x g, 5 min, 4°C). Membranes were collected from the supernatant fraction by centrifugation (32,000 x g, 18 min, 4°C), washed with ice-cold hypotonic buffer, and collected again by centrifugation (32,000 x g, 18 min, 4°C). The final membrane pellet was resuspended by sonication into a small volume of ice-cold binding buffer (-1 ml for every 5 plates: 10 mM NaCl, 20 mM HEPES, 0.22 mM KH2PO4, 1.26 mM CaCl2, 0.81 mM MgSO4, pH 7.4). Protein concentration was measured by the Bradford method (Bradford, 1976) using Bio-Rad Reagent, with bovine serum albumin as a standard. Membranes were held on ice for up to one hour and used fresh, or flash frozen and stored in liquid nitrogen. Membranes were prepared similarly from CHO cells.
# Galanin Recentors: Binding assays were performed according to the following published methods: human GAL3 (PCT International Publication No. WO 98/15570), human GAL1 (PCT International Publication No. WO 95/2260), human GAL2 (PCT International Publication No. WO 97/26853).
# Binding data were analyzed using nonlinear regression and statistical techniques available in the GraphPAD Prism package (San Diego, CA). Enzymatic assay data were derived from a standard curve of reference compound data.
row,Compound,pKi
1,Cc1ccc(Nc2cc(N(C)C)nc(N3CCN(c4ccc(Br)cn4)CC3)n2)cc1 [Example 140],6.77
2,"Cc1ccc(Nc2cc(N(C)C)nc(N3CCN(c4ccc(C(N)=O)cn4)CC3)n2)cc1 [Example 141, 6-{4-[4-(DIMETHYLAMINO)-6-(4-TOLUDINO)-2-PYRIMIDINYL] -1-PIPERAZINYL}NICOTINAMIDE]",6.29
3,COc1cccc(CN2CCN(c3nc(Nc4ccc(C)cc4)cc(N(C)C)n3)CC2)c1 [Example 142],7.55
4,COc1cccc(Nc2cc(N(C)C)nc(N3CCN(c4ccc(Br)cn4)CC3)n2)c1 [Example 143],6.84
5,COc1cccc(Nc2cc(N(C)C)nc(N3CCN(Cc4ccccn4)CC3)n2)c1 [Example 144],6.28
6,COc1cccc(Nc2cc(N(C)C)nc(N3CCN(CC4CCCCC4)CC3)n2)c1 [Example 145],6.81
7,COc1cccc(Nc2cc(N(C)C)nc(N3CCN(Cc4ccsc4)CC3)n2)c1 [Example 146],7.14
8,COc1cccc(Nc2cc(N(C)C)nc(N3CCN(Cc4ccncc4)CC3)n2)c1 [Example 147],6.19
9,COc1cccc(CN2CCN(c3nc(Nc4cccc(OC)c4)cc(N(C)C)n3)CC2)c1 [Example 148],6.56
10,COc1cccc(CCNc2nc(Nc3ccc(C)cc3)cc(N(C)C)n2)c1 [Example 149],6.86
11,COc1ccccc1CCNc1nc(Nc2ccc(C)cc2)cc(N(C)C)n1 [Example 150],6.74
12,CN(C)c1cc(NC2CCC(OCc3ccccc3)CC2)nc(N2CCN(Cc3ccccc3)CC2)n1 (stereo not shown) [Example 152],6.76
13,Cc1ccc(Nc2cc(N(C)C)nc(N3CCN(CC4CCCO4)CC3)n2)cc1 (stereo not shown) [Example 154],6.36
14,CN(C)c1cc(Nc2cccc(O)c2)nc(N2CCN(Cc3ccccc3)CC2)n1 [Example 155],6.50
15,CN(C)c1cc(Nc2ccc(F)cc2)nc(N2CCN(Cc3ccccc3)CC2)n1 [Example 156],7.21
16,CC1CCC(Nc2cc(N(C)C)nc(N3CCN(Cc4ccccc4)CC3)n2)CC1 (stereo not shown) [Example 157],6.56
17,CN(C)c1ccc(Nc2cc(N(C)C)nc(N3CCN(Cc4ccccc4)CC3)n2)cc1 [Example 158],6.03
18,Cc1ccc(Nc2cc(N(C)C)nc(N3CCN(CCc4ccccc4)CC3)n2)cc1 [Example 159],6.74
19,CN(C)c1cc(Nc2cccc(Cl)c2)nc(N2CCN(Cc3ccccc3)CC2)n1 [Example 160],7.59
20,Cc1ccc(Nc2cc(N(C)C)nc(N(C)CCc3ccccn3)n2)cc1 [Example 161],6.94

row,Compound,pKi
1,Cc1ccc(Nc2cc(N(C)C)nc(NCCCc3ccccc3)n2)cc1 [Example 162],7.38
2,COc1cccc(Nc2cc(N(C)C)nc(N3CCN(C4CCCCC4)CC3)n2)c1 [Example 163],6.30
3,CN(C)c1cc(Nc2cccc(F)c2)nc(N2CCN(Cc3ccccc3)CC2)n1 [Example 164],7.22
4,COc1cccc(Nc2cc(N(C)C)nc(N3CCN(Cc4cccs4)CC3)n2)c1 [Example 165],6.86
5,COc1cccc(Nc2cc(N(C)C)nc(N3CCN(Cc4ccccc4OC)CC3)n2)c1 [Example 166],6.58
6,CN(C)c1cc(N[C@H]2CC3CC[C@]2(C)C3(C)C)nc(N2CCN(Cc3ccccc3)CC2)n1 [Example 167],7.30
7,CN(C)c1cc(NC2C3CC4CC(C3)CC2C4)nc(N2CCN(Cc3ccccc3)CC2)n1 (stereo not shown) [Example 168],7.30
8,CN(C)c1cc(NC2CCC(C(C)(C)C)CC2)nc(N2CCN(Cc3ccccc3)CC2)n1 (stereo not shown) [Example 169],7.11
9,CN(C)c1cc(NC2CCCCCCC2)nc(N2CCN(Cc3ccccc3)CC2)n1 [Example 170],7.04
10,CN(C)c1cc(Nc2ccc(Cl)cc2)nc(N2CCN(Cc3ccccc3)CC2)n1 [Example 171],7.60
11,Cc1ccc(Nc2cc(N(C)C)nc(N3CCN(Cc4ccccc4)CC3)n2)cc1Cl [Example 172],7.70
12,CN(C)c1cc(NC2CCc3ccccc3C2)nc(N2CCN(Cc3ccccc3)CC2)n1 (stereo not shown) [Example 173],6.93
13,Cc1ccc(Nc2cc(N(C)C)nc(N3CCN(Cc4cccs4)CC3)n2)cc1 [Example 174],6.49
14,COc1ccccc1CN1CCN(c2nc(Nc3ccc(C)cc3)cc(N(C)C)n2)CC1 [Example 175],7.25
15,Cc1ccc(Nc2cc(N(C)C)nc(NCCNc3ccccc3)n2)cc1 [Example 176],6.22
16,COc1cccc(Nc2cc(N(C)C)nc(N(C)CCc3ccccn3)n2)c1 [Example 177],6.85
17,CN(C)c1cc(Nc2ccc(C3CCCCC3)cc2)nc(N2CCN(c3cnccn3)CC2)n1 [Example 178],7.59
18,CN(C)c1cc(Nc2cccc(OCc3ccccc3)c2)nc(N2CCN(c3cnccn3)CC2)n1 [Example 179],7.82
19,CN(C)c1cc(Nc2ccc3c(c2)CCC3)nc(N2CCN(c3cnccn3)CC2)n1 [Example 180],6.82
20,Cc1ccc(Nc2cc(N(C)C)nc(N3CCN(c4cnccn4)CC3)n2)cc1 [Example 181],6.12

row,Compound,pKi
1,Cc1ccc(Nc2cc(N(C)C)nc(N3CCN(c4cnccn4)CC3)n2)cc1C [Example 183],7.18
2,Cc1ccc(Nc2cc(N3CCC(=O)CC3)nc(N3CCN(Cc4ccccc4)CC3)n2)cc1 [Example 184],6.79
3,"CCCc1ccccc1Nc1cc(N(C)C)nc(N2CCN(c3ccccn3)CC2)n1 [Example 185, N^4,N^4-dimethyl-N^6-(2-propylphenyl)-2-[4-(2-pyridinyl)-1-piperazinyl]-4,6-pyrimidinediamine]",6.44
4,CN(C)c1cc(Nc2ccccc2Cc2ccccc2)nc(N2CCN(c3ccccn3)CC2)n1 [Example 186],7.16
5,CCCCCCc1ccc(Nc2cc(N(C)C)nc(N3CCN(c4ccccn4)CC3)n2)cc1 [Example 187],7.72
6,CN(C)c1cc(Nc2ccc(Cc3ccccc3)cc2)nc(N2CCN(c3ccccn3)CC2)n1 [Example 188],7.57
7,CCCCCCCc1ccc(Nc2cc(N(C)C)nc(N3CCN(c4ccccn4)CC3)n2)cc1 [Example 189],7.59
8,Cc1ccc(Nc2cc(N(C)C)nc(N3CCN(c4ccccn4)CC3)n2)cc1C [Example 190],6.82
9,CC(C)c1cccc(Nc2cc(N(C)C)nc(N3CCN(c4ccccn4)CC3)n2)c1 [Example 191],7.12
10,CCCCCCCCc1ccc(Nc2cc(N(C)C)nc(N3CCN(c4ccccn4)CC3)n2)cc1 [Example 192],7.74
11,CN(C)c1cc(Nc2cccc(I)c2)nc(N2CCN(c3ccccn3)CC2)n1 [Example 193],6.61
12,CN(C)c1cc(Nc2ccc(Cl)cc2)nc(N2CCN(c3ccccn3)CC2)n1 [Example 194],6.61
13,CN(C)c1cc(Nc2ccc(F)c(F)c2)nc(N2CCN(c3ccccn3)CC2)n1 [Example 196],6.35
14,COc1cc(Nc2cc(N(C)C)nc(N3CCN(c4ccccn4)CC3)n2)cc(C(F)(F)F)c1 [Example 197],6.18
15,CN(C)c1cc(Nc2ccc(F)c(F)c2F)nc(N2CCN(c3ccccn3)CC2)n1 [Example 198],6.25
16,CN(C)c1cc(Nc2ccc(Br)cc2F)nc(N2CCN(c3ccccn3)CC2)n1 [Example 199],6.70
17,Cc1cc(Nc2cc(N(C)C)nc(N3CCN(c4ccccn4)CC3)n2)ccc1F [Example 200],6.51
18,COc1ccc(OC)c(Nc2cc(N(C)C)nc(N3CCN(c4ccccn4)CC3)n2)c1 [Example 201],6.25
